Values after ≈ are worked out from the molar mass of the structure shown. Read-outs that look alike come from different tables or passages of the source. Where only a bound is given, the exact number is not on record here.

What all share (format): cell-based
The test system of experiment [1] is S. pyogenes. The experiment in a line: Antibacterial activity (MIC). The conditions noted are these: Streptococcus pyogenes.
Experiment [2] has as its system S. faecalis. The experiment can be described thus: Antibacterial activity (MIC). The settings on record: Enterococcus faecalis.
Experiment [3] concerns E. coli. The experiment can be described thus: Antibacterial activity (MIC). The settings on record: Escherichia coli.
For experiment [4], the system named is S. aureus /Pen. Res. The experiment can be described thus: Antibacterial activity (MIC). The settings on record: Staphylococcus aureus.
The subject of experiment [5] is S. pneumoniae. The experiment in a line: Antibacterial activity (MIC). The settings on record: Streptococcus pneumoniae.
The subject of experiment [6] is S. aureus /Meth. Res. The experiment in a line: Antibacterial activity (MIC). The settings on record: Staphylococcus aureus.
Experiment [7] concerns S. aureus. The experiment in a line: Antibacterial activity (MIC). The settings on record: Staphylococcus aureus.
The subject of experiment [8] is K. pneumoniae. The experiment can be described thus: Antibacterial activity (MIC). The settings on record: Klebsiella pneumoniae.
For experiment [9], the system named is P. mirabilis. The experiment in a line: Antibacterial activity (MIC). The settings on record: Proteus mirabilis.
For experiment [10], the system named is S. aureus /50% serum. The experiment in a line: Antibacterial activity (MIC), 50% serum. The conditions noted are these: Staphylococcus aureus.
In experiment [11] the test system is E. cloacae. The experiment can be described thus: Antibacterial activity (MIC). The settings on record: Enterobacter cloacae.
The mark [12] stands for this setting: S. aureus /Pen. Res., read-out: MIC.
[13] abbreviates: S. aureus /Meth. Res., read-out: MIC.

As to `N[C@@H](C(=O)N[C@@H]1C(=O)N2C(C(=O)O)=C(Cl)CS[C@H]12)c1ccccc1` [CEFACLOR, reference compound], the MIC (as a rule, the lowest concentration found to suppress growth) in experiment [1] was found to be 0.13 µg/mL (≈ 0.353 µM); in experiment [2] it was 32 µg/mL (≈ 87 µM); in experiment [3] (first of two lines), 1 µg/mL (≈ 2.72 µM); in experiment [3] (second of two lines), 2 µg/mL (≈ 5.44 µM); in experiment [4] it was 1 µg/mL (≈ 2.72 µM); in [5], 0.13 µg/mL (≈ 0.353 µM). Further, the MIC is above 125 µg/mL in experiment [6]; 0.25 µg/mL (≈ 0.68 µM) in [7]; 0.5 µg/mL (≈ 1.36 µM) in experiment [8] (first of two lines); 63 µg/mL (≈ 171 µM) in [8] (second of two lines); 2 µg/mL (≈ 5.44 µM) in [9]; 1 µg/mL (≈ 2.72 µM) in [10]. The MIC in [11] was above 125 µg/mL.

Regarding `CC1=C(C(=O)O)N2C(=O)[C@@H](NC(=O)[C@H](N)c3ccccc3)[C@H]2SC1` [CEPHALEXIN, reference compound], the minimum inhibitory concentration (MIC) in [1] was 0.25 µg/mL (≈ 0.72 µM); in experiment [2], 63 µg/mL (≈ 181 µM); in experiment [3] (first of two lines), 4 µg/mL (≈ 11.5 µM); in experiment [3] (second of two lines), 4 µg/mL (≈ 11.5 µM); in experiment [4], 8 µg/mL (≈ 23 µM); in experiment [5] it was 0.5 µg/mL (≈ 1.44 µM). In addition, the MIC was above 125 µg/mL in experiment [6]; 0.5 µg/mL (≈ 1.44 µM) in experiment [7]; 4 µg/mL (≈ 11.5 µM) in [8] (first of two lines); 63 µg/mL (≈ 181 µM) in [8] (second of two lines); 4 µg/mL (≈ 11.5 µM) in [9]; 1 µg/mL (≈ 2.88 µM) in [10]. The MIC in experiment [11] is above 125 µg/mL.

Turning to `C/C=C\C1=C(C(=O)OC(c2ccccc2)c2ccccc2)N2C(=O)C(NC(=O)Cc3ccccc3)[C@H]2SC1` (some centres unmarked) [Ex. 1, Diphenylmethyl 7-phenylacetamido-3-(Z-1-propenyl)-3-cephem-4-carboxylate], the MIC was 0.016 µg/mL (≈ 0.0305 µM) in [1]; 8 µg/mL (≈ 15.2 µM) in experiment [2]; 1 µg/mL (≈ 1.91 µM) in [3] (first of two lines); 4 µg/mL (≈ 7.62 µM) in experiment [3] (second of two lines); 1 µg/mL (≈ 1.91 µM) in [4] (setting [12]); 0.03 µg/mL (≈ 0.0572 µM) in experiment [5]. Further, the MIC was above 125 µg/mL in experiment [6] (setting [13]); 0.13 µg/mL (≈ 0.248 µM) in experiment [7]; 0.5 µg/mL (≈ 0.953 µM) in [8] (first of two lines); 63 µg/mL (≈ 120 µM) in experiment [8] (second of two lines); 1 µg/mL (≈ 1.91 µM) in experiment [9]; 0.5 µg/mL (≈ 0.953 µM) in [10]. This compound returned an MIC in [11] above 125 µg/mL.

Regarding `CC#CC1=C(C(=O)OC(c2ccccc2)c2ccccc2)N2C(=O)C(NC(=O)Cc3ccccc3)[C@H]2SC1` (some centres unmarked) [Ex. 2, Diphenylmethyl 7-phenylacetamido-3-(1-propynyl)-3-cephem-4-carboxylate], the MIC in experiment [1] turned out to be 4 µg/mL (≈ 7.65 µM); in experiment [2] it was 16 µg/mL (≈ 30.6 µM); in [3] (first of two lines) it was 16 µg/mL (≈ 30.6 µM); in [3] (second of two lines) it was 16 µg/mL (≈ 30.6 µM); in [4] (setting [12]), 8 µg/mL (≈ 15.3 µM); in experiment [5], 8 µg/mL (≈ 15.3 µM). Moreover, the MIC in [6] (setting [13]) was above 16 µg/mL; in experiment [7] it was 4 µg/mL (≈ 7.65 µM); in [8] (first of two lines), 16 µg/mL (≈ 30.6 µM); in experiment [8] (second of two lines), above 16 µg/mL; in experiment [9], 16 µg/mL (≈ 30.6 µM); in experiment [10] it was above 16 µg/mL. The compound also came in with an MIC in experiment [11] above 16 µg/mL.

With `CC(C)=CC1=C(C(=O)OC(c2ccccc2)c2ccccc2)N2C(=O)C(NC(=O)Cc3ccccc3)[C@H]2SC1` (some centres unmarked) [Ex. 3, Diphenylmethyl 7-phenylacetamido-3-(2-methyl-1-propenyl)-3-cephem-4-carboxylate], the MIC was 0.03 µg/mL (≈ 0.0557 µM) in experiment [1]; 4 µg/mL (≈ 7.43 µM) in [2]; 2 µg/mL (≈ 3.71 µM) in experiment [3] (first of two lines); 32 µg/mL (≈ 59.4 µM) in [3] (second of two lines); 0.5 µg/mL (≈ 0.928 µM) in [4] (setting [12]); 0.03 µg/mL (≈ 0.0557 µM) in [5]. Besides, the MIC in [6] (setting [13]) was above 125 µg/mL; in experiment [8] (first of two lines), 4 µg/mL (≈ 7.43 µM); in experiment [8] (second of two lines), above 125 µg/mL; in experiment [9], 4 µg/mL (≈ 7.43 µM); in [10] it was 0.06 µg/mL (≈ 0.111 µM); in experiment [11], 63 µg/mL (≈ 117 µM).

As for `CC=C=CC1=C(C(=O)O)N2C(=O)C(NC(=O)[C@H](N)c3ccc(O)cc3)C2SC1` (some centres unmarked) [Ex. 14], the MIC is 2 µg/mL (≈ 4.98 µM) in experiment [1]; above 63 µg/mL in experiment [2]; above 63 µg/mL in experiment [3] (first of two lines); above 63 µg/mL in experiment [3] (second of two lines); 63 µg/mL (≈ 157 µM) in experiment [4] (setting [12]); 2 µg/mL (≈ 4.98 µM) in [5]. In addition, the MIC in experiment [6] (setting [13]) was above 63 µg/mL; in [7], 8 µg/mL (≈ 19.9 µM); in experiment [8] (first of two lines) it was above 63 µg/mL; in experiment [8] (second of two lines) it was above 63 µg/mL; in [9], 63 µg/mL (≈ 157 µM); in experiment [10], 32 µg/mL (≈ 79.7 µM). In addition, the MIC in [11] was above 63 µg/mL.
